In one experiment the target is human recombinant Btk (Homo sapiens (Human), UniProt Q06187). As to the kind of experiment: Human Recombinant Btk Enzyme Assay. The conditions noted are these: human recombinant Btk 1 nM, ATP 20 μM. It counts as biochemical.
The target in a further experiment is Jak2 tyrosine kinase (Homo sapiens (Human), UniProt O60674). In words: Jak2 Tyrosine Kinase Assay. It counts as biochemical. Conditions: for IC50: Jak2 1 nM, ATP 30 μM; for Ratio of Jak2/Btk IC50 values: selectivity for Btk over Jak2, larger value = more selective for Btk.
Jak2 tyrosine kinase, sequence (O60674 whole entry): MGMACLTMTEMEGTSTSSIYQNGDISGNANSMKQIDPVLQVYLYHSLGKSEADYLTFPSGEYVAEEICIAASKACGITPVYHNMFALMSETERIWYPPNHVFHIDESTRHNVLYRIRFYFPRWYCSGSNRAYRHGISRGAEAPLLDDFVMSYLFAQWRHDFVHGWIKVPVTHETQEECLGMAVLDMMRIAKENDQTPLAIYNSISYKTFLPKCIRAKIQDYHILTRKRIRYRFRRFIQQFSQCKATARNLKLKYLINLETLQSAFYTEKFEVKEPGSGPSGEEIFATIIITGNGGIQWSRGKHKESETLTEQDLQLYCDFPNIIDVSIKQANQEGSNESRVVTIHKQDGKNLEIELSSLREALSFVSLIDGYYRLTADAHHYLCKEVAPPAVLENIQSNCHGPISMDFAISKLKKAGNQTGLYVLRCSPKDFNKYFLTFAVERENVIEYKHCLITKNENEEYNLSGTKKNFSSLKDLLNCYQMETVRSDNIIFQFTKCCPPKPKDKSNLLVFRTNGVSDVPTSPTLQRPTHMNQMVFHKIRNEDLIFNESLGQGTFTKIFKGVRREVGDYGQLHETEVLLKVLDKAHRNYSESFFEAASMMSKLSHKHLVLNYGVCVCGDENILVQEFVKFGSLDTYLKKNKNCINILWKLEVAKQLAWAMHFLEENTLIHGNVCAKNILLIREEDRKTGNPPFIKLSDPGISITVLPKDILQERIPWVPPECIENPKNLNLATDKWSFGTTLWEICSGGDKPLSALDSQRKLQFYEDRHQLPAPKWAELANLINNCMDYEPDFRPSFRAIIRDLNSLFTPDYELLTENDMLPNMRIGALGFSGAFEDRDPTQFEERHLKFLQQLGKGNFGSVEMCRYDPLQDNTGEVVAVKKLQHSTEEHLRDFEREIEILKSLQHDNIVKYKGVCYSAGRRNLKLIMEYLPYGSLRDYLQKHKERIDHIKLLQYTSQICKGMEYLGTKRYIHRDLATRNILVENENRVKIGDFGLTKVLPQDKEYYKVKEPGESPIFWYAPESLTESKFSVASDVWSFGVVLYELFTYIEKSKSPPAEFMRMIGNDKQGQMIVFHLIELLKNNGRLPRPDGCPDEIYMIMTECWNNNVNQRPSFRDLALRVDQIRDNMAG
The subject of experiment [1] is CD69 expression on B cells in human whole blood. As to the kind of experiment: Whole Blood Assays of BCR-Stimulated CD69 Expression on B Cells. It counts as cell-based. The conditions noted are these: anti-human IgM + IL-4 stimulation, 18 h at 37° C.

Molecules are shown by their SMILES.

human recombinant Btk, sequence (Q06187 whole entry): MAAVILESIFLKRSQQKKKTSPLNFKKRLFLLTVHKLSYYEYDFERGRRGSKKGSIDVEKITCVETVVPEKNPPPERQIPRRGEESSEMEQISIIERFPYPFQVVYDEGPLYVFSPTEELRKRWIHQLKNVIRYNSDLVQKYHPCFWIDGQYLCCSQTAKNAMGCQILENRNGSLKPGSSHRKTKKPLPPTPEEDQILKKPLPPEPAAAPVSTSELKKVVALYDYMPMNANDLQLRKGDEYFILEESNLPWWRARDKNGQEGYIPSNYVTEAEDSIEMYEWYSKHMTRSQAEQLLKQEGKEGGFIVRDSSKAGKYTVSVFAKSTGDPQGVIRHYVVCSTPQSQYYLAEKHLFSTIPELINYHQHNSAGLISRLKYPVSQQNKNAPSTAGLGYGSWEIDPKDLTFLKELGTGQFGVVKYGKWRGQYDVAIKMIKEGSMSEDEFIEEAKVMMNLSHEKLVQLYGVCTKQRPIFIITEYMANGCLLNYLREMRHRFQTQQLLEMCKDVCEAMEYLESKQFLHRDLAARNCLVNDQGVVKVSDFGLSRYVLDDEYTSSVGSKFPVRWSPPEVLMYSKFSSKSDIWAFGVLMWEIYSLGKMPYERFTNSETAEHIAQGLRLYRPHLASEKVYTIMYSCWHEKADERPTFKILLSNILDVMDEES

Consider `COc1cccn2c(=O)n(-c3cccc(-c4ccc(C(N)=O)c5[nH]c6cc(C(C)(C)O)ccc6c45)c3C)c(=O)cc12` [Example 12, 7-(2-Hydroxypropan-2-yl)-4-(3-(5-methoxy-1,3-dioxo-1H-pyrido[1,2-c]pyrimidin-2(3H)-yl)-2-methylphenyl)-9H-carbazole-1-carboxamide], for which the IC50 (usually the concentration that inhibits the measured activity by half) on human recombinant Btk stood at 0.52 nM; at Jak2 tyrosine kinase, 980 nM; in experiment [1] (B-cell), 140 nM. Further, the “Ratio of Jak2/Btk IC50 values” on Jak2 tyrosine kinase was determined as 1900.
In the case of `Cc1c(-c2ccc(C(N)=O)c3[nH]c4cc(C(C)(C)O)ccc4c23)cccc1-n1c(=O)cc2c(Cl)cccn2c1=O` [Example 13, 4-(3-(5-Chloro-1,3-dioxo-1H-pyrido[1,2-c]pyrimidin-2(3H)-yl)-2-methylphenyl)-7-(2-hydroxypropan-2-yl)-9H-carbazole-1-carboxamide], the IC50 at human recombinant Btk was 0.94 nM; at Jak2 tyrosine kinase it was 1300 nM; in experiment [1], 120 nM. At Jak2 tyrosine kinase, the “Ratio of Jak2/Btk IC50 values” is listed as 1400.
Turning to `Cc1c(-c2ccc(C(N)=O)c3[nH]c4cc(NC(=O)C(C)(C)C)ccc4c23)cccc1-n1c(=O)cc2c(Cl)cccn2c1=O` [Example 16, 4-(3-(5-Chloro-1,3-dioxo-1H-pyrido[1,2-c]pyrimidin-2(3H)-yl)-2-methylphenyl)-7-pivalamido-9H-carbazole-1-carboxamide], the IC50 at human recombinant Btk was 2.1 nM; at Jak2 tyrosine kinase, 2200 nM; in experiment [1] (B-cell), 220 nM. Further, the “Ratio of Jak2/Btk IC50 values” on Jak2 tyrosine kinase is given as 1000.
In the same order, the values of `COCc1ccc2c(c1)[nH]c1c(C(N)=O)ccc(-c3cccc(-n4c(=O)cc5c(Cl)cccn5c4=O)c3C)c12` [Example 17, 4-(3-(5-Chloro-1,3-dioxo-1H-pyrido[1,2-c]pyrimidin-2(3H)-yl)-2-methylphenyl)-7-(methoxymethyl)-9H-carbazole-1-carboxamide] are 1.7 nM, 1900 nM, 110 nM and 1100.
In the same order, the values of `COCc1ccc2c(c1)[nH]c1c(C(N)=O)ccc(-c3cccc(-n4c(=O)cc5c(F)cccn5c4=O)c3C)c12` [Example 18, 4-(3-(5-Fluoro-1,3-dioxo-1H-pyrido[1,2-c]pyrimidin-2(3H)-yl)-2-methylphenyl)-7-(methoxymethyl)-9H-carbazole-1-carboxamide] are 2.3 nM, 740 nM, 130 nM and 320.
On to `Cc1c(-c2ccc(C(N)=O)c3[nH]c4cc(C(C)(C)O)ccc4c23)cccc1-n1c(=O)c(F)c2ccccn2c1=O` [Example 19, 4-(3-(4-Fluoro-1,3-dioxo-1H-pyrido[1,2-c]pyrimidin-2(3H)-yl)-2-methylphenyl)-7-(2-hydroxypropan-2-yl)-9H-carbazole-1-carboxamide], for which the IC50 on human recombinant Btk is 1.6 nM; against Jak2 tyrosine kinase it was 1900 nM; in experiment [1] (B-cell), 140 nM. Moreover, the “Ratio of Jak2/Btk IC50 values” at Jak2 tyrosine kinase is 1200.
In the same order, the values of `Cc1c(-c2ccc(C(N)=O)c3[nH]c4cc(C(C)(C)O)ccc4c23)cccc1-n1c(=O)cc2sccn2c1=O` [Example 20, 4-(3-(5,7-Dioxo-5H-thiazolo[3,2-c]pyrimidin-6(7H)-yl)-2-methylphenyl)-7-(2-hydroxypropan-2-yl)-9H-carbazole-1-carboxamide] are 1.6 nM, 570 nM, 130 nM and 360.
`Cc1c(-c2ccc(C(N)=O)c3[nH]c4cc(C(C)(C)O)ccc4c23)cccc1-n1c(=O)cc2c(F)cccn2c1=O` [Example 21, 4-(3-(5-Fluoro-1,3-dioxo-1H-pyrido[1,2-c]pyrimidin-2(3H)-yl)-2-methylphenyl)-7-(2-hydroxypropan-2-yl)-9H-carbazole-1-carboxamide]: the IC50 was 0.93 nM on human recombinant Btk; 960 nM against Jak2 tyrosine kinase; 75 nM in experiment [1] (Homo sapiens, B-cell, 18 h). In addition, the “Ratio of Jak2/Btk IC50 values” on Jak2 tyrosine kinase was 1000.
As for `Cc1c(-c2ccc(C(N)=O)c3[nH]c4cc(C(C)(C)O)ccc4c23)cccc1-n1c(=O)cc2c(F)cccn2c1=O` [Example 22, 4-(3-(5-Fluoro-1,3-dioxo-1H-pyrido[1,2-c]pyrimidin-2(3H)-yl)-2-methylphenyl)-7-(2-hydroxypropan-2-yl)-9H-carbazole-1-carboxamide], the IC50 stood at 1.7 nM at human recombinant Btk, 880 nM at Jak2 tyrosine kinase and 91 nM in experiment [1]. Besides, on Jak2 tyrosine kinase, the “Ratio of Jak2/Btk IC50 values” is 520.
In the same order, the values of `Cc1c(-c2ccc(C(N)=O)c3[nH]c4cc(C(C)(C)O)ccc4c23)cccc1-n1c(=O)cc2c(F)cccn2c1=O` [Example 23, 4-(3-(5-Fluoro-1,3-dioxo-1H-pyrido[1,2-c]pyrimidin-2(3H)-yl)-2-methylphenyl)-7-(2-hydroxypropan-2-yl)-9H-carbazole-1-carboxamide] are 1.2 nM, 1000 nM, 79 nM and 830.
Turning to `Cc1c(-c2ccc(C(N)=O)c3[nH]c4cc(CO)ccc4c23)cccc1-n1c(=O)cc2c(F)cccn2c1=O` [Example 28, 4-(3-(5-fluoro-1,3-dioxo-1H-pyrido[1,2-c]pyrimidin-2(3H)-yl)-2-methylphenyl)-7-(hydroxymethyl)-9H-carbazole-1-carboxamide], the figures for the IC50 (at human recombinant Btk; at Jak2 tyrosine kinase; in experiment [1] (B-cell)) were 1.5 nM, 800 nM and 87 nM, respectively. In addition, on Jak2 tyrosine kinase, the “Ratio of Jak2/Btk IC50 values” is 530.
The corresponding values for `CC(=O)NCc1ccc2c(c1)[nH]c1c(C(N)=O)ccc(-c3cccc(-n4c(=O)cc5c(F)cccn5c4=O)c3C)c12` [Example 30, 7-(acetamidomethyl)-4-(3-(5-fluoro-1,3-dioxo-1H-pyrido[1,2-c]pyrimidin-2(3H)-yl)-2-methylphenyl)-9H-carbazole-1-carboxamide] are 1.2 nM, 430 nM, 130 nM and 360.
For the compound `Cc1c(-c2ccc(C(N)=O)c3[nH]c4c(F)c(C(C)(C)O)ccc4c23)cccc1-n1c(=O)c2cccc(F)c2n(C)c1=O` [Example 33, 8-fluoro-4-(3-(8-fluoro-1-methyl-2,4-dioxo-1,2-dihydroquinazolin-3(4H)-yl)-2-methylphenyl)-7-(2-hydroxypropan-2-yl)-9H-carbazole-1-carboxamide], the IC50 on human recombinant Btk stood at 0.4 nM; against Jak2 tyrosine kinase it was 226 nM; in experiment [1] (B-cell), 250 nM. Further, the “Ratio of Jak2/Btk IC50 values” on Jak2 tyrosine kinase amounted to 540.

The values above are taken from patent publication US9714234B2, “Carbazole carboxamide compounds” (Bristol-Myers Squibb Company, priority 2013, dated 2017).
